The source of these data is publication PMC8635778 (Angewandte Chemie (International ed. in English), 2020).

The conditions of data set [1]: mouse, in vivo, iv.
In data set [2] the test system is papillary RCC cell line (ACHN) orthotopic xenograft. Put plainly: fluorescence imaging of orthotopic papillary RCC xenograft. The settings on record: cancerous vs normal kidney tissue. It is filed as in vivo, mice.

Take `CC1(C)C(/C=C/C=C/C=C/C=C2\N(CCCCS(=O)(=O)O)c3ccc4ccccc4c3C2(C)C)=[N+](CCCCS(=O)(=O)[O-])c2ccc3ccccc3c21` [ICG, indocyanine green]: in data set [1], the “amount found in the feces” value is reported as 85.3 % ID and the “amount in feces, times higher than ICG-PEG45” value is 29.8 times. In addition, the “hyperfluorescent imaging of RCC in the kidneys (in words)” value in data set [2] is given as “failed to hyperfluorescently light up RCC”.
